We go through 7 compounds from PubChem BioAssay (NCI).

Several values for one entry are separate records, joined by “and”; a condition that tells them apart may be missing. Equal values may be shown once.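 96-well plates; 48 h exposure; 5 concentrations. Endpoints by linear interpolation between flanking doses. Not reached: highest tested concentration assigned. GI50: concentration for 50% inhibition of growth. TGI: total growth inhibition.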

Test systems include SF-268 CNS; NCI-H226 lung; M14 melanoma; NCI-H460 lung; SR leukemia; ACHN renal; OVCAR-3 ovarian; OVCAR-5 ovarian; HCT-116 colon; A498 renal.
Common to all, as to assay: NCI anticancer screen, dose series, 48 h

Take `CC#CC1C(OC(=O)c2ccccc2)CCCC1(CI)N=[N+]=[N-]` (centres undefined): the TGI in the experiment on SF-268 CNS is greater than 100 µM; in the experiment with NCI-H226 lung, greater than 100 µM; in the experiment on M14 melanoma it was greater than 100 µM; with NCI-H460 lung it was greater than 100 µM; in the experiment on SR leukemia, 55.2 µM; in the experiment on ACHN renal, greater than 100 µM. For the same compound, the TGI in the experiment on OVCAR-3 ovarian, in the experiment with OVCAR-5 ovarian, in the experiment on HCT-116 colon and with A498 renal was greater than 100 µM in each case.

Turning to `c1ccc(P(CCP(CCP(c2ccccc2)c2ccccc2)c2ccccc2)CCP(c2ccccc2)c2ccccc2)cc1` (centres undefined), the GI50 was > 10 µM and 3.71 µM in the experiment on SF-268 CNS; > 10 µM and 4.18 µM in the experiment with M14 melanoma; greater than 10 µM in the experiment with ACHN renal; greater than 10 µM with OVCAR-3 ovarian. Moreover, the TGI in the experiment on SF-268 CNS was greater than 10 µM; in the experiment with NCI-H226 lung, greater than 10 µM; in the experiment with M14 melanoma, greater than 10 µM; in the experiment on NCI-H460 lung it was 3.12 µM; in the experiment with SR leukemia, greater than 10 µM; in the experiment with ACHN renal it was greater than 10 µM. Moreover, the TGI with OVCAR-3 ovarian, in the experiment on OVCAR-5 ovarian, in the experiment on HCT-116 colon and with A498 renal was greater than 10 µM each time.

Take `CS/C(C)=N/OC(=O)NCCCCNc1ccc(N=[N+]=[N-])cc1`: the TGI was greater than 100 µM with SF-268 CNS; greater than 100 µM with NCI-H226 lung; greater than 100 µM in the experiment with M14 melanoma; greater than 100 µM with NCI-H460 lung; greater than 100 µM in the experiment with SR leukemia; 97.2 µM in the experiment with ACHN renal. For the same compound, the TGI in the experiment on OVCAR-3 ovarian is 62.9 µM; with OVCAR-5 ovarian, greater than 100 µM; in the experiment on HCT-116 colon it was greater than 100 µM; in the experiment on A498 renal, greater than 100 µM.

For `Nc1n[nH]c2cccc(C#Cc3cccc(C(=O)Nc4cc(CN5CCOCC5)cc(C(F)(F)F)c4)c3)c12`, the GI50 with SF-268 CNS is 5.66 µM; in the experiment with NCI-H226 lung it was 1.72 µM; in the experiment with M14 melanoma, 2.13 µM; in the experiment on NCI-H460 lung, 4.11 µM; in the experiment on SR leukemia it was 2.69 µM; in the experiment with ACHN renal, 3.06 µM. For the same compound, the GI50 was 7.41 µM in the experiment with OVCAR-3 ovarian, 3.37 µM in the experiment on OVCAR-5 ovarian, 2 µM with HCT-116 colon and 1.75 µM in the experiment on A498 renal. The TGI in the experiment on SF-268 CNS amounted to 22.1 µM; in the experiment on NCI-H226 lung, 9.68 µM; in the experiment on M14 melanoma, 8.32 µM; with NCI-H460 lung, 16.9 µM; in the experiment with SR leukemia, 22.9 µM; in the experiment on ACHN renal, 11.8 µM. Also, the TGI was 31.3 µM in the experiment on OVCAR-3 ovarian, 25.7 µM with OVCAR-5 ovarian, 11.1 µM in the experiment on HCT-116 colon and 9.53 µM with A498 renal.

With `N.N.NCCCCCCN.O=C([O-])CC(=O)[O-].O=C([O-])CC(=O)[O-].[Pt+4].[Pt+4]`, the GI50 is 28.9 µM with SF-268 CNS; greater than 56.7 µM in the experiment with NCI-H226 lung; greater than 86.7 µM in the experiment on M14 melanoma; 6.59 µM in the experiment on NCI-H460 lung; greater than 41.9 µM with SR leukemia; 36.1 µM in the experiment with ACHN renal. The GI50 in the experiment on OVCAR-3 ovarian is greater than 89.7 µM; in the experiment with OVCAR-5 ovarian it was greater than 100 µM; in the experiment on HCT-116 colon, greater than 100 µM; in the experiment on A498 renal it was greater than 100 µM. Besides, the TGI in the experiment on SF-268 CNS, in the experiment with NCI-H226 lung, with M14 melanoma, with NCI-H460 lung, in the experiment with SR leukemia and with ACHN renal was greater than 100 µM throughout. The TGI in the experiment on OVCAR-3 ovarian, in the experiment with OVCAR-5 ovarian, in the experiment on HCT-116 colon and in the experiment with A498 renal was greater than 100 µM each time.

On to `CC(C)N1C(NNC(=O)c2cnccn2)=NS(=O)(=O)c2ccccc21`, for which the GI50 with SF-268 CNS, with NCI-H226 lung, in the experiment on M14 melanoma, in the experiment on NCI-H460 lung, in the experiment on SR leukemia and with ACHN renal was greater than 100 µM throughout. Also, the GI50 in the experiment on OVCAR-3 ovarian, in the experiment with OVCAR-5 ovarian, in the experiment on HCT-116 colon and with A498 renal was greater than 100 µM throughout. Moreover, the TGI in the experiment on SF-268 CNS, with NCI-H226 lung, with M14 melanoma, in the experiment on NCI-H460 lung, in the experiment with SR leukemia and with ACHN renal was greater than 100 µM each time. Further, the TGI with OVCAR-3 ovarian, in the experiment on OVCAR-5 ovarian, in the experiment on HCT-116 colon and in the experiment with A498 renal was greater than 100 µM in each case.

As to `COc1ccc(/C=C2\CCC(CN(C)C)C2=O)cc1OC` (centres undefined), the TGI with SF-268 CNS stood at 27.1 µM; with NCI-H226 lung, 28.2 µM; in the experiment with M14 melanoma it was 16.1 µM; in the experiment with NCI-H460 lung, 26.6 µM; in the experiment with SR leukemia, 9.26 µM; in the experiment with ACHN renal it was 15.9 µM. Also, the TGI with OVCAR-3 ovarian was determined as 15.8 µM; in the experiment on OVCAR-5 ovarian, 29.8 µM; with HCT-116 colon, 7.01 µM; with A498 renal, 27.8 µM.
